Test results as given in ChEMBL document CHEMBL4387717, “Structure guided drug design to develop kallikrein 5 inhibitors to treat Netherton syndrome” (Bioorg Med Chem Lett, 2019).
Converted amounts (≈) assume the structure as drawn.

Assays:
[1] = target: T1, Kallikrein-5 (Homo sapiens, UniProt Q9Y337); assay: Inhibition of recombinant 6His-Q-FLAG tagged human KLK5 expressed in baculovirus infected Sf9 insect cells using (Tos-Gly-Pro-Arg)2[R110].2TFA as substrate measured at 30 secs interval for 5 mins by fluorescence intensity assay
T1 sequence (Q9Y337 whole entry): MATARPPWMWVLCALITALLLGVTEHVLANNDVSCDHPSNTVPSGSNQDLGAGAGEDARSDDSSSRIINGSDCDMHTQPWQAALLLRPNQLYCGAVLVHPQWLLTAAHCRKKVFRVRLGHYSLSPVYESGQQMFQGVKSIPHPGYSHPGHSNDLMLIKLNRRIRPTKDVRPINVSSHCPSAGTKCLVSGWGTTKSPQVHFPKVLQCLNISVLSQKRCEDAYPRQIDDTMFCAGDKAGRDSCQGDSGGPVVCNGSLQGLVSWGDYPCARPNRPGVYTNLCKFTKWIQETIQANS

[2] = target: Kallikrein-1 (Homo sapiens, UniProt P06870); assay: Inhibition of recombinant bovine enterokinase activated N-terminal His-tagged recombinant human KLK1 (19 to 262 residues) expressed in baculovirus infected Sf9 insect cells using 3',6'-bis(prolylphenylalanylarginylamino)3H-spiro(2-benzofuran-1,9'-xanthen)-3-one;TFA as substrate measured at 30 secs interval for 5 mins by fluorescence intensity assay
[3] = species: Homo sapiens; assay: Selectivity index, ratio of compound effect for inhibition of recombinant bovine enterokinase activated N-terminal His-tagged recombinant human KLK1 (19 to 262 residues) expressed in baculovirus infected Sf9 insect cells to compound effect for inhibition of recombinant 6His-Q-FLAG tagged human KLK5 expressed in baculovirus infected insect Sf9 cells
[4] = Solubility of the compound in water at 24 hrs; format: physicochemical
[5] = Solubility of the compound in pH 4 Britton-Robinson buffer at 24 hrs; format: physicochemical; conditions: buffer, pH 4, 24 h
[6] = Solubility of the compound in pH 6 Britton-Robinson buffer at 24 hrs; format: physicochemical; conditions: buffer, pH 6, 24 h
[7] = Half life in pH 4 to 8 buffer at 0.05 mg/ml over 24 hrs; format: physicochemical
[8] = Half life in pH 6 buffer at 0.05 mg/ml under H2O2-induced oxidative condition over 24 hrs; format: physicochemical; conditions: buffer with H2O2, pH 6
[9] = Half life in pH 8 buffer at 0.05 mg/ml under H2O2-induced oxidative condition over 24 hrs; format: physicochemical; conditions: buffer with H2O2, pH 8
[10] = Absorption property in methanol assessed as maximum absorption wavelength by UV-spectra analysis; format: physicochemical
[11] = Absorption property in methanol assessed as molar extinction co-efficient by UV-spectra analysis; format: physicochemical

Kallikrein-1, sequence (P06870 whole entry, the tested form may be a part): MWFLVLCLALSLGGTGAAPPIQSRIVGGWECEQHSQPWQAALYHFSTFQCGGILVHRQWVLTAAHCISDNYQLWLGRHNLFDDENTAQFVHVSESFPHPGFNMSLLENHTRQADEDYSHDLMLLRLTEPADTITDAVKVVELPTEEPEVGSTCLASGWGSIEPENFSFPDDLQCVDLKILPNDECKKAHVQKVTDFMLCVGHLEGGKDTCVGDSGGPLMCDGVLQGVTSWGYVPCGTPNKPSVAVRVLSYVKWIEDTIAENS

Compound | IC50 ([1]; read-out: pIC50 (converted)) | IC50 [2] | also measured
N=C(N)c1ccc(NCc2nc3cc(Cl)ccc3[nH]2)cc1 | 10 µM | 2 µM | 
N=C(N)c1ccc(NCc2nc(-c3ccccc3)c[nH]2)cc1OCc1ccccn1 | 0.126 µM | 20 µM | 
Cn1ccnc1CNc1ccc(C(=N)N)cc1 | 126 µM | 398 µM | 
N=C(N)c1ccc(NCc2nc(-c3ccccc3)c[nH]2)cc1OCc1ncccn1 | 0.0794 µM | 39.8 µM | 
Cn1c(CNc2ccc(C(=N)N)cc2)nc2ccccc21 | 15.8 µM | 6.31 µM | 
N=C(N)c1ccc(NCc2ncc[nH]2)cc1 | 25.1 µM | 63.1 µM | 
N=C(N)c1ccc(NCc2nc(-c3ccccc3)c[nH]2)cc1OCC(=O)NC1CC1 | 0.0794 µM | 15.8 µM | 
Cc1ccc2[nH]c(CNc3ccc(C(=N)N)cc3)nc2c1 | 10 µM | 6.31 µM | 
N=C(N)c1ccc(NCc2nc(-c3ccccc3)c[nH]2)cc1OCC(=O)NCC1CC1 | 0.0398 µM | > 6.31 µM | solubility at 24 h [4]: 3000 µg/mL (≈ 7.17 mM); solubility [5]: Soluble; solubility [6]: Soluble; half-life at 0.05 mg/ml [7]: > 1000 h; half-life at 0.05 mg/ml [8]: 26.7 h; half-life at 0.05 mg/ml [9]: 14 h; Activity [10]: > 290 nm; Activity [11]: > 1000 a.u.L/mol.cm
COc1ccc2[nH]c(CNc3ccc(C(=N)N)cc3)nc2c1 | 12.6 µM | 31.6 µM | 

Second part, led by results:

IC50 ([1]; read-out: pIC50 (converted)) | IC50 [2] | Compound | also measured
0.316 µM | 6.31 µM | CCOc1cc(NCc2nc(-c3ccccc3)c[nH]2)ccc1C(=N)N | Selectivity Index [3]: 20
0.0794 µM | 25.1 µM | N=C(N)c1ccc(NCc2nc(-c3ccccc3)c[nH]2)cc1OCc1ccccc1 | IC50 ([1]; read-out: IC50): < 0.01 µM; Selectivity Index [3]: 300
3.98 µM | 79.4 µM | N=C(N)c1ccc(NCc2nc(-c3ccccc3)c[nH]2)cc1OCCO | 
0.794 µM | > 50.1 µM | N=C(N)c1ccc(NCc2nc(-c3ccccc3)c[nH]2)cc1OCC(N)=O | 
20 µM | 39.8 µM | N=C(N)c1ccc(NCc2nc3ccccc3[nH]2)cc1 | 
0.794 µM | 50.1 µM | N=C(N)c1ccc(NCc2nc(-c3ccccc3)c[nH]2)cc1OCC1CC1 | Selectivity Index [3]: 60
0.251 µM | 31.6 µM | CNC(=O)COc1cc(NCc2nc(-c3ccccc3)c[nH]2)ccc1C(=N)N | 
0.0794 µM | > 5.01 µM | N=C(N)c1ccc(NCc2nc(-c3ccccc3)c[nH]2)cc1OCc1cccc(Cl)c1 | 
0.2 µM | 50.1 µM | N=C(N)c1ccc(NCc2nc(-c3ccccc3)c[nH]2)cc1OCCC1CC1 | Selectivity Index [3]: 250
0.0316 µM | > 2.51 µM | N=C(N)c1ccc(NCc2nc(-c3ccccc3)c[nH]2)cc1OCc1ccccc1Cl | 
6.31 µM | 79.4 µM | CC(C)COc1cc(NCc2nc(-c3ccccc3)c[nH]2)ccc1C(=N)N | 
0.1 µM | 12.6 µM | N=C(N)c1ccc(NCc2nc(-c3ccccc3)c[nH]2)cc1OCc1ncco1 | 
15.8 µM | 79.4 µM | CN(C)CCOc1cc(NCc2nc(-c3ccccc3)c[nH]2)ccc1C(=N)N | 
0.0631 µM | > 5.01 µM | N=C(N)c1ccc(NCc2nc(-c3ccccc3)c[nH]2)cc1OCc1ccc(Cl)cc1 | 
6.31 µM | 25.1 µM | N=C(N)c1ccc(NCc2nc(-c3ccccc3)c[nH]2)cc1 | 
